In PubChem BioAssay (NCI):
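Method: 48-hour compound exposure of cells in 96-well plates, five concentrations, linear interpolation of endpoints. At the GI50, growth is halved. TGI marks complete inhibition of growth.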

Columns and labels:
Assay in all cases: NCI tumour cell line growth inhibition, 48 h
IGROV1 ovarian = system: IGROV1 ovarian
OVCAR-8 ovarian = system: OVCAR-8 ovarian
SNB-19 CNS = system: SNB-19 CNS
HL-60(TB) leukemia = system: HL-60(TB) leukemia
SK-MEL-5 melanoma = system: SK-MEL-5 melanoma
CCRF-CEM leukemia = system: CCRF-CEM leukemia
MDA-MB-231 breast = system: MDA-MB-231 breast
COLO 205 colon = system: COLO 205 colon
PC-3 prostate = system: PC-3 prostate
MCF7 breast = system: MCF7 breast
SN12C renal = system: SN12C renal
A549 NSCLC = system: A549 NSCLC
ACHN renal = system: ACHN renal
BT-549 breast = system: BT-549 breast
SF-539 CNS = system: SF-539 CNS
NCI-H23 lung = system: NCI-H23 lung
NCI-H226 lung = system: NCI-H226 lung
HOP-62 NSCLC = system: HOP-62 NSCLC
OVCAR-3 ovarian = system: OVCAR-3 ovarian
HOP-92 NSCLC = system: HOP-92 NSCLC
DU-145 prostate = system: DU-145 prostate
MOLT-4 leukemia = system: MOLT-4 leukemia
T-47D breast = system: T-47D breast
SR leukemia = system: SR leukemia
UACC-257 melanoma = system: UACC-257 melanoma
SNB-75 CNS = system: SNB-75 CNS
SK-MEL-2 melanoma = system: SK-MEL-2 melanoma
K-562 leukemia = system: K-562 leukemia
SF-295 CNS = system: SF-295 CNS
RXF 393 renal = system: RXF 393 renal
TK-10 renal = system: TK-10 renal
786-0 renal = system: 786-0 renal
MALME-3M melanoma = system: MALME-3M melanoma
HCC-2998 colon = system: HCC-2998 colon
SK-MEL-28 melanoma = system: SK-MEL-28 melanoma
RPMI-8226 leukemia = system: RPMI-8226 leukemia
OVCAR-4 ovarian = system: OVCAR-4 ovarian
MDA-MB-435 = system: MDA-MB-435
SW-620 colon = system: SW-620 colon
HT29 colon = system: HT29 colon
SK-OV-3 ovarian = system: SK-OV-3 ovarian
HCT-15 colon = system: HCT-15 colon
UACC-62 melanoma = system: UACC-62 melanoma
CAKI-1 renal = system: CAKI-1 renal
SF-268 CNS = system: SF-268 CNS
NCI/ADR-RES ovarian = system: NCI/ADR-RES ovarian
UO-31 renal = system: UO-31 renal
HCT-116 colon = system: HCT-116 colon
M14 melanoma = system: M14 melanoma
KM12 colon = system: KM12 colon
NCI-H460 lung = system: NCI-H460 lung
LOX IMVI melanoma = system: LOX IMVI melanoma
NCI-H522 lung = system: NCI-H522 lung
OVCAR-5 ovarian = system: OVCAR-5 ovarian
A498 renal = system: A498 renal
HS 578T breast = system: HS 578T breast
U251 CNS = system: U251 CNS

COc1cccc(F)c1C(=O)c1cnc(NC2CCN(S(C)(=O)=O)CC2)nc1N
GI50 (IGROV1 ovarian): 3.9 µM
TGI (IGROV1 ovarian): > 25 µM
GI50 (OVCAR-8 ovarian): 4.08 µM
TGI (OVCAR-8 ovarian): > 25 µM
GI50 (SNB-19 CNS): 3.46 µM
TGI (SNB-19 CNS): > 25 µM
GI50 (HL-60(TB) leukemia): 1.44 µM
TGI (HL-60(TB) leukemia): 13.3 µM
GI50 (SK-MEL-5 melanoma): 2.06 µM
TGI (SK-MEL-5 melanoma): > 23.3 µM
GI50 (CCRF-CEM leukemia): 2.51 µM
TGI (CCRF-CEM leukemia): > 25 µM
GI50 (MDA-MB-231 breast): 2.74 µM
TGI (MDA-MB-231 breast): > 22.1 µM
GI50 (COLO 205 colon): 1.49 µM
TGI (COLO 205 colon): 5.69 µM
GI50 (PC-3 prostate): 0.984 µM
TGI (PC-3 prostate): 12.3 µM
GI50 (MCF7 breast): 0.326 µM
TGI (MCF7 breast): > 25 µM
GI50 (SN12C renal): 5.08 µM
TGI (SN12C renal): > 25 µM
GI50 (A549 NSCLC): 3.15 µM
TGI (A549 NSCLC): > 25 µM
GI50 (ACHN renal): 2.16 µM
TGI (ACHN renal): > 25 µM
GI50 (BT-549 breast): 5.45 µM
TGI (BT-549 breast): 16.8 µM
GI50 (SF-539 CNS): 3.68 µM
TGI (SF-539 CNS): 11.7 µM
GI50 (NCI-H23 lung): 3.15 µM
TGI (NCI-H23 lung): 21.7 µM
GI50 (NCI-H226 lung): 3.72 µM
TGI (NCI-H226 lung): > 18.9 µM
GI50 (HOP-62 NSCLC): 4.64 µM
TGI (HOP-62 NSCLC): 23 µM
GI50 (OVCAR-3 ovarian): 4.6 µM
TGI (OVCAR-3 ovarian): 19 µM
GI50 (HOP-92 NSCLC): 1.05 µM
TGI (HOP-92 NSCLC): 9.15 µM
GI50 (DU-145 prostate): 6.54 µM
TGI (DU-145 prostate): > 22.8 µM
GI50 (MOLT-4 leukemia): 2.14 µM
TGI (MOLT-4 leukemia): > 14.7 µM
GI50 (T-47D breast): 5.22 µM
TGI (T-47D breast): 24.4 µM
GI50 (SR leukemia): 0.644 µM
TGI (SR leukemia): > 11.8 µM
GI50 (UACC-257 melanoma): 3.97 µM
TGI (UACC-257 melanoma): 15.3 µM
GI50 (SNB-75 CNS): 4.13 µM
TGI (SNB-75 CNS): 9.57 µM
GI50 (SK-MEL-2 melanoma): 3.43 µM
TGI (SK-MEL-2 melanoma): 9.94 µM
GI50 (K-562 leukemia): 6.55 µM
TGI (K-562 leukemia): > 25 µM
GI50 (SF-295 CNS): 3 µM
TGI (SF-295 CNS): > 25 µM
GI50 (RXF 393 renal): 1.88 µM
TGI (RXF 393 renal): 6.19 µM
GI50 (TK-10 renal): 4.03 µM
TGI (TK-10 renal): > 25 µM
GI50 (786-0 renal): 6.06 µM
TGI (786-0 renal): > 25 µM
GI50 (MALME-3M melanoma): 4.35 µM
TGI (MALME-3M melanoma): 13.7 µM
GI50 (HCC-2998 colon): 4.75 µM
TGI (HCC-2998 colon): > 25 µM
GI50 (SK-MEL-28 melanoma): 3.43 µM
TGI (SK-MEL-28 melanoma): > 20.8 µM
GI50 (RPMI-8226 leukemia): 1.96 µM
TGI (RPMI-8226 leukemia): 11.3 µM
GI50 (OVCAR-4 ovarian): 5.61 µM
TGI (OVCAR-4 ovarian): > 25 µM
GI50 (MDA-MB-435): 2.48 µM
TGI (MDA-MB-435): > 25 µM
GI50 (SW-620 colon): 0.781 µM
TGI (SW-620 colon): > 18.1 µM
GI50 (HT29 colon): 2.54 µM
TGI (HT29 colon): 23.3 µM
GI50 (SK-OV-3 ovarian): 13 µM
TGI (SK-OV-3 ovarian): > 25 µM
GI50 (HCT-15 colon): 3.63 µM
TGI (HCT-15 colon): > 25 µM
GI50 (UACC-62 melanoma): 2.66 µM
TGI (UACC-62 melanoma): 9.42 µM
GI50 (CAKI-1 renal): 3.4 µM
TGI (CAKI-1 renal): > 22.9 µM
GI50 (SF-268 CNS): 5.96 µM
TGI (SF-268 CNS): > 21.4 µM
GI50 (NCI/ADR-RES ovarian): 6.9 µM
TGI (NCI/ADR-RES ovarian): > 25 µM
GI50 (UO-31 renal): 4.6 µM
TGI (UO-31 renal): 21.9 µM
GI50 (HCT-116 colon): 1.34 µM
TGI (HCT-116 colon): > 25 µM
GI50 (M14 melanoma): 5.33 µM
TGI (M14 melanoma): > 25 µM
GI50 (KM12 colon): 2.02 µM
TGI (KM12 colon): > 20.7 µM
GI50 (NCI-H460 lung): 0.862 µM
TGI (NCI-H460 lung): > 25 µM
GI50 (LOX IMVI melanoma): 1.85 µM
TGI (LOX IMVI melanoma): > 25 µM
GI50 (NCI-H522 lung): 7.87 µM
TGI (NCI-H522 lung): > 23.7 µM
GI50 (OVCAR-5 ovarian): 3.59 µM
TGI (OVCAR-5 ovarian): > 25 µM
GI50 (A498 renal): 3.58 µM
TGI (A498 renal): 8.72 µM
GI50 (HS 578T breast): 3.83 µM
TGI (HS 578T breast): 15.9 µM
GI50 (U251 CNS): 2.6 µM
TGI (U251 CNS): > 25 µM
